Measurements published in ChEMBL document CHEMBL1201862, “PubChem BioAssay data set” (2004).
Active and inactive are the calls of the source. No rule for the calls is given here.

Columns and labels:
[1] = molecular target: Death-associated protein kinase 3 (Homo sapiens, UniProt O43293); type: functional;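 also: measured as one member of a kinome-wide profiling panel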
Cytochrome P450 1A2 = molecular target: T1, Cytochrome P450 1A2 (Homo sapiens, UniProt P05177);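 also: PubChem cytochrome P450 panel assay, CYP1A2 panel member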
T1 sequence (P05177 whole entry): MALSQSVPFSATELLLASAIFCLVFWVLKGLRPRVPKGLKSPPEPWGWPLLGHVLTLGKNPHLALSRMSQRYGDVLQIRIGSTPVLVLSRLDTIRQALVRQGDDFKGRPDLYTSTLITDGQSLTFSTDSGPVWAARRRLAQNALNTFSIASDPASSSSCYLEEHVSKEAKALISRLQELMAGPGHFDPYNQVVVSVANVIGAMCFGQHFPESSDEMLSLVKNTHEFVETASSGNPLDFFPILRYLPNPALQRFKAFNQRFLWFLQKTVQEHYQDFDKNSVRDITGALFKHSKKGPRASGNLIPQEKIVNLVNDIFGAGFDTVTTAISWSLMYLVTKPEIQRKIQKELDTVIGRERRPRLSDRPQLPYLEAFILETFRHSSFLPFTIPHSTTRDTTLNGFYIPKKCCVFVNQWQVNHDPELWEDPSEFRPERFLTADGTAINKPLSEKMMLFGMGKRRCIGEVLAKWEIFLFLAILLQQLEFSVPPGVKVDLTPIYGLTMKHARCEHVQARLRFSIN

[2] = molecular target: Cyclin-dependent kinase 9 (Homo sapiens, UniProt P50750); type: functional;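 also: value from the CDK9 entry of a kinome-spanning kinase panel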
Chain of Cyclin-dependent kinase 9 (P50750 whole entry): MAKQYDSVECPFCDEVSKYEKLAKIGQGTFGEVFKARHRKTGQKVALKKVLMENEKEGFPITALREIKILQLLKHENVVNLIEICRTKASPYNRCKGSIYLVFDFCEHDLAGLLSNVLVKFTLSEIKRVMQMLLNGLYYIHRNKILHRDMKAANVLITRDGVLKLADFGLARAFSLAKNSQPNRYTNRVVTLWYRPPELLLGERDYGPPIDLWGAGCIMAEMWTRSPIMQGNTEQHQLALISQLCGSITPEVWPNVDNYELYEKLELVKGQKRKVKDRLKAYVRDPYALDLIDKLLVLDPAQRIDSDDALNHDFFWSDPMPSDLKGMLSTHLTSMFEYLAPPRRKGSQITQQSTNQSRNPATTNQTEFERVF

[3] = molecular target: Tyrosine-protein kinase JAK2 (Homo sapiens, UniProt O60674); type: functional;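 also: JAK2 tested as one member of a kinase panel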
Chain of Tyrosine-protein kinase JAK2 (O60674 whole entry): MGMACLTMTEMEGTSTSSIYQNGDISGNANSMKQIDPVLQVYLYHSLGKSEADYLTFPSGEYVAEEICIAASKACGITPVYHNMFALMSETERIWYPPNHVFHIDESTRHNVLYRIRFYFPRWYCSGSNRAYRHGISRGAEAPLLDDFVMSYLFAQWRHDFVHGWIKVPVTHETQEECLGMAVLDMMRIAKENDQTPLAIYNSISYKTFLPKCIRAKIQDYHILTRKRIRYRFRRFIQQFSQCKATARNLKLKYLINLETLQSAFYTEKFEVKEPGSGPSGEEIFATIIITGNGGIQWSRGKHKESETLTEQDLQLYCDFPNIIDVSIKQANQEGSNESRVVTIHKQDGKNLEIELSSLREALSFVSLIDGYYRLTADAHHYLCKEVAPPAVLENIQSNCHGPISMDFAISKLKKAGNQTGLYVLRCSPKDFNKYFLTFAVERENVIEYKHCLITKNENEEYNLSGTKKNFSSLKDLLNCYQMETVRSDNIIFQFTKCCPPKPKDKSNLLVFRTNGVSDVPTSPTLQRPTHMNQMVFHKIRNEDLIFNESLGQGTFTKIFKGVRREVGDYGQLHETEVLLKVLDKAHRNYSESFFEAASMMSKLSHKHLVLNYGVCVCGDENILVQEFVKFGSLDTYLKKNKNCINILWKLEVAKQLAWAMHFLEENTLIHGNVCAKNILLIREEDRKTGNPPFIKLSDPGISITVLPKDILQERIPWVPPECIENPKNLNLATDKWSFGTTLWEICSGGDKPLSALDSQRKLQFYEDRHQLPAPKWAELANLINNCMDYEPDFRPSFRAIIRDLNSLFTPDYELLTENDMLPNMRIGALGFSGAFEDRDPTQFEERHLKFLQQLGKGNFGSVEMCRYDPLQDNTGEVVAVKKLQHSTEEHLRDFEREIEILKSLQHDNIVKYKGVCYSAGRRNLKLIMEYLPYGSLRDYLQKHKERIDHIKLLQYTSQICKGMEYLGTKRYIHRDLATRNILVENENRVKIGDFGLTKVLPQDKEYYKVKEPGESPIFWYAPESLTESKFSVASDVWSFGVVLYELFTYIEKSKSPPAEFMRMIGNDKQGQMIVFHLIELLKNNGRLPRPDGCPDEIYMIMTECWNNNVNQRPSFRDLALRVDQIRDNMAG

[4] = molecular target: Cyclin-dependent kinase 7 (Homo sapiens, UniProt P50613); type: functional;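 also: value comes from a kinome-wide kinase profiling panel in which CDK7 is one member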
Chain of Cyclin-dependent kinase 7 (P50613 whole entry): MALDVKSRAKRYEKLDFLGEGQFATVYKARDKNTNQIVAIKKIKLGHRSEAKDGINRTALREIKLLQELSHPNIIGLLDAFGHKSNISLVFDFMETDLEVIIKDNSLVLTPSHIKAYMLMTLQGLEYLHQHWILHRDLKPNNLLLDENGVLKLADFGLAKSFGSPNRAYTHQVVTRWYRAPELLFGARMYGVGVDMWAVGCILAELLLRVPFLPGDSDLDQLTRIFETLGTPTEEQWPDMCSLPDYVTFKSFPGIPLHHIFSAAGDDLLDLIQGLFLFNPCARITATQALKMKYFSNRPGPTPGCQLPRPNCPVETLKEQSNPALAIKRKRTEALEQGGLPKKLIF

[5] = molecular target: Mitogen-activated protein kinase 9 (Homo sapiens, UniProt P45984); type: functional;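 also: value from a kinome panel profiling assay, MAPK9 panel entry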
Activin receptor type-1 = molecular target: T2, Activin receptor type-1 (Homo sapiens, UniProt Q04771); assay: Navigating the Kinome. Panel member name: ACVR1; type: functional
T2 sequence (Q04771 whole entry): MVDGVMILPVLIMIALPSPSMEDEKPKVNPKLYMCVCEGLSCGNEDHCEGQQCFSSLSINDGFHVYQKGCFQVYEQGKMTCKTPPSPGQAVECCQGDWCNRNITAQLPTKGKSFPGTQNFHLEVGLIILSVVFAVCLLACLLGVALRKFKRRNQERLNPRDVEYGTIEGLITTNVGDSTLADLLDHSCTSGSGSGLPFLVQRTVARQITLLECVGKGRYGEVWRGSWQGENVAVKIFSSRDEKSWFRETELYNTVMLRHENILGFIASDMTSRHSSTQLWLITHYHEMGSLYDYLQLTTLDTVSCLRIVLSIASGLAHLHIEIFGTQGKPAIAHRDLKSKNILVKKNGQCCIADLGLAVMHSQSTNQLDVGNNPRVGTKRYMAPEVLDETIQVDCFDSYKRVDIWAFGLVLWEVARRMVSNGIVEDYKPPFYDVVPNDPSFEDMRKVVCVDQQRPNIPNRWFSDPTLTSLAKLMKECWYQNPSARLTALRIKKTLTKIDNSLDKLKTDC

[6] = molecular target: Serine/threonine-protein kinase pim-1 (Homo sapiens, UniProt P11309); type: functional
[7] = molecular target: Macrophage colony-stimulating factor 1 receptor (Homo sapiens, UniProt P07333); type: functional;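 also: value comes from the Navigating the Kinome screening panel, CSF1R member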
Chain of Macrophage colony-stimulating factor 1 receptor (P07333 whole entry): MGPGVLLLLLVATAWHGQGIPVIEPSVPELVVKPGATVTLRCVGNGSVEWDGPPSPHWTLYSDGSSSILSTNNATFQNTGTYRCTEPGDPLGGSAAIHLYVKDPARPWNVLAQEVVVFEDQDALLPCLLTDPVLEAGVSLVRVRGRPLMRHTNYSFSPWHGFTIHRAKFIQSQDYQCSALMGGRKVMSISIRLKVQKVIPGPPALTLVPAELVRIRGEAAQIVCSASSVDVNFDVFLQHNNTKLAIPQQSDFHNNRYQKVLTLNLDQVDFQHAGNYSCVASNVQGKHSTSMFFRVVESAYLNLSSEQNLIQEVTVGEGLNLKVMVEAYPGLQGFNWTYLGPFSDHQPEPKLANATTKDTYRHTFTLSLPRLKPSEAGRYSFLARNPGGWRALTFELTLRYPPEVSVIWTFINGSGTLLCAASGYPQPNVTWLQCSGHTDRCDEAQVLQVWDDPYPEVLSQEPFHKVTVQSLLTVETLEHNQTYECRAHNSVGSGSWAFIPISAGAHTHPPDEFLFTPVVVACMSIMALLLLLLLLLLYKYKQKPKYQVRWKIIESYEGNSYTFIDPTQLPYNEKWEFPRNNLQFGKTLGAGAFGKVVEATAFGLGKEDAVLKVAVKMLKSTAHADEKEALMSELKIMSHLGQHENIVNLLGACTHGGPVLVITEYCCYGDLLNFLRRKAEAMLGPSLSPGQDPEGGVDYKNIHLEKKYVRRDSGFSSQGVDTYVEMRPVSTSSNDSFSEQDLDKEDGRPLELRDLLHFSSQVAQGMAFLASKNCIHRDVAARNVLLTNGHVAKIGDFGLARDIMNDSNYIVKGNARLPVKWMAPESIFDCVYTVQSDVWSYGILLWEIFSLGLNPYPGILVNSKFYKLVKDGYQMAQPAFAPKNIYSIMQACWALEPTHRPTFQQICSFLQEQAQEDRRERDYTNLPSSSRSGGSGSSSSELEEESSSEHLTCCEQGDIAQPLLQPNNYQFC

[8] = molecular target: Tyrosine-protein kinase JAK3 (Homo sapiens, UniProt P52333); type: functional
Chain of Tyrosine-protein kinase JAK3 (P52333 whole entry): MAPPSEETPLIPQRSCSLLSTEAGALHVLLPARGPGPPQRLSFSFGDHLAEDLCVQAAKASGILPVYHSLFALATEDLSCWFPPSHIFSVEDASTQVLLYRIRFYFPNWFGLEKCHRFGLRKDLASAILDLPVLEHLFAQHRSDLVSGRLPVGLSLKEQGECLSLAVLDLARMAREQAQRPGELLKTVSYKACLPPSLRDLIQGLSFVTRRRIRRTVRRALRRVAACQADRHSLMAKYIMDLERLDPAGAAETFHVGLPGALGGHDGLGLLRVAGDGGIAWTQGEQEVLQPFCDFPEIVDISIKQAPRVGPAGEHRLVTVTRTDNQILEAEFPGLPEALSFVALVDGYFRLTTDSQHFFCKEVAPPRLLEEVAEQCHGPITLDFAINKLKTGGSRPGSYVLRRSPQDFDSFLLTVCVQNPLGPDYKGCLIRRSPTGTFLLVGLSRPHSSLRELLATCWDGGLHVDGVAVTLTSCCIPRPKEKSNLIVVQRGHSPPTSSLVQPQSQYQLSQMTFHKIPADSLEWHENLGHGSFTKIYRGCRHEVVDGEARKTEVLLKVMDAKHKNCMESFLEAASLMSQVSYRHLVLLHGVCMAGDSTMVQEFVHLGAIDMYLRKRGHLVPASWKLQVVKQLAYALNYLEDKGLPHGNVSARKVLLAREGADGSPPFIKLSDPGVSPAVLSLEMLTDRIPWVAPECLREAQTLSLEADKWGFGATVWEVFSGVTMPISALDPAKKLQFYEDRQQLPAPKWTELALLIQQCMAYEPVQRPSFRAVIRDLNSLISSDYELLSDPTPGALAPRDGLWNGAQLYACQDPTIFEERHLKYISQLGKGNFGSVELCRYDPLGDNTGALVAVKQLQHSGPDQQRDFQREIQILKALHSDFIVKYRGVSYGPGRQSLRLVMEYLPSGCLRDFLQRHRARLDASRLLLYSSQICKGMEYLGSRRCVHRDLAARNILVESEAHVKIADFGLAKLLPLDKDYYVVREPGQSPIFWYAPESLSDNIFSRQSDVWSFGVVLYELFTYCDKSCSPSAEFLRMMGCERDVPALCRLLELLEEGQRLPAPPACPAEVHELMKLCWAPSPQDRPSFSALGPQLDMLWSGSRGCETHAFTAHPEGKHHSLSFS

[9] = molecular target: Proto-oncogene tyrosine-protein kinase receptor Ret (Homo sapiens, UniProt P07949); type: functional;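 also: measured within a kinome-wide profiling panel, RET as the panel member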
Chain of Proto-oncogene tyrosine-protein kinase receptor Ret (P07949 whole entry): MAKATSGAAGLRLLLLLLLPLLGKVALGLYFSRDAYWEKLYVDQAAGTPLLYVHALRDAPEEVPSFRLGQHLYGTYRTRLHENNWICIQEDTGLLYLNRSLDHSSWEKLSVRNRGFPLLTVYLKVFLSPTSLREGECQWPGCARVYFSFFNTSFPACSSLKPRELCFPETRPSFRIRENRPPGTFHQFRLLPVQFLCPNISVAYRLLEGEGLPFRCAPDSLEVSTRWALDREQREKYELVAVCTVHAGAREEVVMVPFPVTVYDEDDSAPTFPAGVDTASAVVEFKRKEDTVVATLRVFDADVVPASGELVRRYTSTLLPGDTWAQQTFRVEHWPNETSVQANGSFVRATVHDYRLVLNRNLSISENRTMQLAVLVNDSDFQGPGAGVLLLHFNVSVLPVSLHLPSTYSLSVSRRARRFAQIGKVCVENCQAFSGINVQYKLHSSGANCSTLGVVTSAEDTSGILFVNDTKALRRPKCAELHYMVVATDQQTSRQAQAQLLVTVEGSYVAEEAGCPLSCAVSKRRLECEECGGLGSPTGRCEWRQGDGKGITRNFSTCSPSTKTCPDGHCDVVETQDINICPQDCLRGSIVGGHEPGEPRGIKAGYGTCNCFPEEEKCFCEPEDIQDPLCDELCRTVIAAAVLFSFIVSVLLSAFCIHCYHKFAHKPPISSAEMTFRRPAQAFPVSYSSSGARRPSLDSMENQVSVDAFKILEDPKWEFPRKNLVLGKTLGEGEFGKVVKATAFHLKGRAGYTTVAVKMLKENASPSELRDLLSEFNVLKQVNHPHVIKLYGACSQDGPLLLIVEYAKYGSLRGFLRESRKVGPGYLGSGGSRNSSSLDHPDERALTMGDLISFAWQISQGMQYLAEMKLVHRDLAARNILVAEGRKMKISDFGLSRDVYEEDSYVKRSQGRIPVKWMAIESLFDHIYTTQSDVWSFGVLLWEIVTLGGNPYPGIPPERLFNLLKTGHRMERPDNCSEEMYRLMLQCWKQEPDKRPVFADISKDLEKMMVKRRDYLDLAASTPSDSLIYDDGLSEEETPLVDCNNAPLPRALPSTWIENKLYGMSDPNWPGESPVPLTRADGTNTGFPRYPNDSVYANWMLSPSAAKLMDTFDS

[10] = molecular target: Cyclin-dependent kinase 8 (Homo sapiens, UniProt P49336); assay: Navigating the Kinome. Panel member name: CDK8; type: functional
[11] = molecular target: Dual specificity protein kinase CLK2 (Homo sapiens, UniProt P49760); type: functional
[12] = molecular target: Macrophage-stimulating protein receptor (Homo sapiens, UniProt Q04912); assay: Navigating the Kinome. Panel member name: MST1R; type: functional

SMILES: NC(=O)c1ccc(-c2nc(-c3ccc4c(c3)OCO4)c(-c3ccccn3)[nH]2)cc1 [SB-431542]
- Ki [1]: > 5.01 µM (inactive)
- AC50 (Cytochrome P450 1A2): 15.8 µM (inconclusive)
- Ki [2]: > 1.58 µM (inactive)
- Ki [3]: > 2.51 µM (inactive)
- Ki [4]: > 3.98 µM (inactive)
- Ki [5]: > 3.98 µM (inactive)
- Ki (Activin receptor type-1): > 3.98 µM (inactive)
- Ki [6]: > 6.31 µM (inactive)
- Ki [7]: > 2.51 µM (inactive)
- Ki [8]: > 5.01 µM (inactive)
- Ki [9]: > 3.16 µM (inactive)
- Ki [10]: > 3.98 µM (inactive)
- Ki [11]: > 3.98 µM (inactive)
- Ki [12]: > 3.98 µM (inactive)
